Experimental data: article PMC6156125, “Chemistry and Hypoglycemic Activity of GPR119 Agonist ZB-16” (Frontiers in Endocrinology, 2018)
≈ marks a conversion by molar mass, not a printed value. Where “and” joins values, the source holds several entries; their conditions need not be identical. Identical values can stand only once. Like-named read-outs stand apart in the source and are kept apart here.

What was measured:
human GPR119 (hGPR119) = target: T1, human GPR119 (hGPR119) (Homo sapiens, UniProt Q8TDV5); test: Specific (agonistic) activity in vitro, cAMP increase (Lance Ultra cAMP kit) in CHO-K1 cells expressing hGPR119; type: cell-based; conditions: for EC50: CHO-K1 hGPR119, cAMP
T1 construct: expressed in transfected cells; host or cells: CHO-K1 (Chinese hamster ovary)
T1 sequence (Q8TDV5 1-335): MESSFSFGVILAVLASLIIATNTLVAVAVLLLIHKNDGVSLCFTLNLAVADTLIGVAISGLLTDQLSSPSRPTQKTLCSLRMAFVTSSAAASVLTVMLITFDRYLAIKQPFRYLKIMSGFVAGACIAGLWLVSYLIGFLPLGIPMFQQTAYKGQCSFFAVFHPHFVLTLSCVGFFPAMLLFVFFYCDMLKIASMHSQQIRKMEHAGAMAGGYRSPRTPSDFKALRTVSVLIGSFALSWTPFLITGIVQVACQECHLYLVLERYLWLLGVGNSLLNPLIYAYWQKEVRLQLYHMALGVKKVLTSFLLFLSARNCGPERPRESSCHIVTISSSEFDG
Method: Specific activity was evaluated using an immortalized Chinese hamster ovary cell line CHO-K1 steadily expressed human GPR119 (hGPR119). The cells (10^7 ml^−1) were cultured in Dulbecco's modified Eagle medium (DMEM) modified with 10% fetal bovine serum (FBS), revolved continuously at 50 rpm at 37°C in 8% CO2 for 3–4 days. Lance Ultra cAMP kit (Perkin Elmer, Waltham, MA, USA) was chosen as the experimental platform ([13]). The experiments were performed in accordance to the manufacturer's instructions. The agonistic activity of the test compounds was estimated by the increase in intracellular cAMP concentration, assuming the hGPR119 activation is followed by the activation of cellular adenylate cyclase, which increases intracellular cAMP levels ([4], [14]). Known agonists of hGPR119 receptors were used as positive controls to determine the maximal possible effect (MPE). The activity of test compounds was expressed in terms of median effective concentration (EC50).

[1] = test system: male Wistar rats with streptozotocin-nicotinamide induced type 2 diabetes mellitus (STZ-NA T2D); set-up: method as in PMID 28736546; conditions: 1 mg/kg/day orally for 28 day, ref [11]; cited from earlier work
[2] = Biotransformation in vitro, microsomal stability (human); type: in vitro ADME
Method: (§1) The metabolism of the compounds was studied in commercially available microsomal fractions derived from human and rat hepatocytes. Test compounds (0.5 μM) were incubated with microsomal fractions in the presence of NADPH during 30 min in a shaker at 37°C. Reactions were stopped at 0, 5, 10, 15, and 30 min by adding acetonitrile. After proteins precipitation, the remaining amount of the test compound in the supernatant was detected with high performance liquid chromatography tandem-mass spectrometry (HPLC-MS/MS) method using Agilent 1260 liquid chromatograph (Agilent Technologies, Santa Clara, CA, USA) and a QTRAP6500 triple quadrupole mass spectrometer with a TurboIonSpray electro-spraying module (ABSciex, Foster City, CA, USA) ([15]). Incubation was performed twice, with at least 2 measurements for each replicate (n ≥ 3). The half-life (T1/2), the clearance in vitro (CLint) and the remaining amount of substance (% of initial quantity) were calculated.

[3] = Biotransformation in vitro, microsomal stability (rat); type: in vitro ADME
Method: as §1

[4] = Pharmacokinetics in vivo after single oral or intravenous administration; set-up: species or system rat; conditions: rats, 10 mg/kg; for Vd: read-out: Vz
Method: The pharmacokinetics of ZB-16 in a dose of 10 mg/kg after single oral or intravenous administration was studied in 6 male Wistar rats weighing 250–280 g. The blood from the tail vein (200 μL) was collected before and at 0, 0.25, 0.5, 1, 2, 4, 8, 12, and 24 h after ZB-16 administration. The blood concentrations of the test compounds in animals were evaluated using HPLC-MS/MS. Basic pharmacokinetic parameters were calculated using a non-model method and WinNonlin Professional 6.0 (Pharsight Corporation, Mountain View, CA, USA) based on the experimental concentration-time data obtained on each animal.

physchem = conditions: Britton-Robinson universal buffer, kinetic from dmso stock
[5] = liver microsomal fraction, 0.5 μM, NADPH, read-out: t1/2, min
[6] = male, Wistar, rat, plasma, iv, i.v. injection, Mean ± SD (n = 3)
[7] = male, Wistar, rat, plasma, iv, i.v. injection, individual rat
[8] = male, Wistar, rat, plasma, po, oral administration, Mean ± SD (n = 3)
[9] = male, Wistar, rat, plasma, po, oral administration, individual rat
[10] = oral administration, individual rat

O=S1(=O)COc2cc(-c3ccc(OCC4CCN(c5ncc(Cl)cn5)CC4)c(F)c3)ccc21 [ZB-16]
EC50 (human GPR119 (hGPR119)): 7.25 nM
EC50 (human GPR119 (hGPR119); values of the text): 7.3 to 9.7 nM
type of agonism on GPR119 (human GPR119 (hGPR119); response normalized to control substance (Arena)): complete agonist
blood glucose levels under fasting conditions [1]: decreased
glucose utilization [1]: improved
stimulated secretion of GLP-1 and insulin [1]: increase
ER ([2]; Human microsomal fraction): 0.76
CLh ([2]; Human microsomal fraction, in mL/min/kg (unit assumed)): 16.43
microsomal CLint at 0.5 μM ([2]; liver microsomal fraction): 65.2 µL/min/mg
half-life at 0.5 μM [2, 5]: 0.709 h
ER ([3]; Rat microsomal fraction): 0.58
CLh ([3]; Rat microsomal fraction, in mL/min/kg (unit assumed)): 32.09
microsomal CLint at 0.5 μM ([3]; liver microsomal fraction): 42.8 µL/min/mg
half-life at 0.5 μM [3, 5]: 1.08 h
AUC(0-t) ([4]; male, Wistar, plasma, iv, i.v. injection, individual rat, read-out: AUC 0-t): 244 ng·h/mL
Tmax ([4]; male, Wistar, plasma, oral administration, individual rat): 4 h
half-life ([4]; male, Wistar, rat, plasma, read-out: half-life): > 12 h
bioavailability ([4]; male, Wistar, rat, plasma, oral vs i.v., read-out: absolute bioavailability): 8%
AUC(0-inf) [4, 6]: 339 ± 97.2 ng·h/mL
clearance [4, 6]: 100 mL/min/kg
k el [4, 6]: 1.39e-05 s⁻¹
AUC(0-t) ([4]; male, Wistar, rat, plasma, iv, i.v. injection, Mean ± SD (n = 3), read-out: AUC 0-t): 218 ± 30.4 ng·h/mL
C0 ([4]; male, Wistar, rat, plasma, iv, i.v. injection, Mean ± SD (n = 3), read-out: C0): 32 ± 8.7 ng/mL
MRT last ([4]; male, Wistar, rat, plasma, iv, i.v. injection, Mean ± SD (n = 3), read-out: MRT last): 9 ± 1 h
Vd [4, 6]: 123 ± 18.1 L/kg
half-life ([4]; male, Wistar, rat, plasma, iv, i.v. injection, Mean ± SD (n = 3), read-out: t1/2 (converted)): 15 ± 5.8 h
AUC(0-inf) [4, 7]: 441 ng·h/mL
clearance [4, 7]: 83.3 mL/min/kg
k el [4, 7]: 8.33e-06 s⁻¹
AUC(0-t) ([4]; male, Wistar, rat, plasma, iv, i.v. injection, individual rat, read-out: AUC 0-t): 226 ng·h/mL
C0 ([4]; male, Wistar, rat, plasma, iv, i.v. injection, individual rat, read-out: C0): 29 ng/mL
MRT last ([4]; male, Wistar, rat, plasma, iv, i.v. injection, individual rat, read-out: MRT last): 10 h
Vd [4, 7]: 139 L/kg
half-life ([4]; male, Wistar, rat, plasma, iv, i.v. injection, individual rat, read-out: t1/2 (converted)): 21 h
AUC(0-inf) [4, 8]: 119 ± 11.9 ng·h/mL
k el [4, 8]: 1.67e-05 s⁻¹
AUC(0-t) ([4]; male, Wistar, rat, plasma, po, oral administration, Mean ± SD (n = 3), read-out: AUC 0-t): 85 ± 17.6 ng·h/mL
Cmax ([4]; male, Wistar, rat, plasma, po, oral administration, Mean ± SD (n = 3), read-out: Cmax): 6 ± 1.2 ng/mL
MRT last ([4]; male, Wistar, rat, plasma, po, oral administration, Mean ± SD (n = 3), read-out: MRT last): 9 ± 1 h
half-life ([4]; male, Wistar, rat, plasma, po, oral administration, Mean ± SD (n = 3), read-out: t1/2 (converted)): 13 ± 5.2 h
AUC(0-inf) [4, 9]: 124 ng·h/mL
k el [4, 9]: 1.11e-05 s⁻¹
AUC(0-t) ([4]; male, Wistar, rat, plasma, po, oral administration, individual rat, read-out: AUC 0-t): 69 ng·h/mL
Cmax ([4]; male, Wistar, rat, plasma, po, oral administration, individual rat, read-out: Cmax): 4 ng/mL
MRT last ([4]; male, Wistar, rat, plasma, po, oral administration, individual rat, read-out: MRT last): 10 h
half-life ([4]; male, Wistar, rat, plasma, po, oral administration, individual rat, read-out: t1/2 (converted)): 19 h
AUC 0−∞ ([4]; i.v. injection, individual rat): 247 ng·h/mL and 329 ng·h/mL
AUC(0-t) ([4]; i.v. injection, individual rat): 184 ng·h/mL
C0 ([4]; i.v. injection, individual rat): 26 ng/mL and 42 ng/mL
CL ([4]; i.v. injection, individual rat): 130 mL/min/kg
Kel ([4]; i.v. injection, individual rat): 0.06 h⁻¹
MRT last ([4]; i.v. injection, individual rat): 8 h
Vz ([4]; i.v. injection, individual rat): 127 L/kg and 104 L/kg
t1/2 ([4]; i.v. injection, individual rat): 11 h and 12 h
AUC 0−∞ [4, 10]: 128 ng·h/mL and 105 ng·h/mL
AUC(0-t) [4, 10]: 104 ng·h/mL and 83 ng·h/mL
Cmax [4, 10]: 7 ng/mL
Kel [4, 10]: 0.07 h⁻¹
t1/2 [4, 10]: 10 H
solubility (physchem; pH 2, aqueous buffer): 52 µM (≈ 25.5 µg/mL)
solubility (physchem; pH 4, aqueous buffer): < 3 µM
solubility (physchem; pH 7, aqueous buffer): 4 µM (≈ 1.96 µg/mL)
